This note sets out measurements from US20080248511A1, “METHODS TO QUENCH LIGHT FROM OPTICAL REACTIONS” (priority 2007, published 2008).

The target of the assay is T1, Renilla luciferase (Renilla reniformis, UniProt P27652).
T1 sequence (P27652 1-311): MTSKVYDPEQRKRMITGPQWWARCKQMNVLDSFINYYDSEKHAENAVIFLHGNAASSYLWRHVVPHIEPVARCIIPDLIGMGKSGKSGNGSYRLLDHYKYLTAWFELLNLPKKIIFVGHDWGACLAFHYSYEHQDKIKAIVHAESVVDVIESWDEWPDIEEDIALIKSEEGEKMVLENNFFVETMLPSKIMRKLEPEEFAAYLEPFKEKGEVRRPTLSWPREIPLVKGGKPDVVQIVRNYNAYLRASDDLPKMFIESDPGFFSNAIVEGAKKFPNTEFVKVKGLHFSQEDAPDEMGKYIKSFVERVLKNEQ
In words: Detergent titration with Tergitol NP-9, digitonin or no lysing agent, Renilla luciferase (Example 4). In kind it is biochemical. To be noted: for remaining activity at 0.0005 % / remaining activity at 0.005 % / remaining activity at 0.05 %: read-out: Relative Renilla Luc Intensity.

Like-named read-outs stand apart in the source and are kept apart here.

Take `CCCCCCCCCCCC[N+](C)(C)Cc1ccccc1.[Br-]` [Benzyldimethyldodecylammonium bromide]: the “Selective Inhibition (Ff Luc Inh/Ren Luc Inh)” value runs as follows: (0.0005% detergent, Dig) 1.8; (0.0005% detergent, Terg) 1.1; (0.0005% detergent, Water) 2.2; (0.0050% detergent, Dig) 29; (0.0050% detergent, Terg) 1.7; (0.0050% detergent, Water) 36. For the same compound, the “Selective Inhibition (Ff Luc Inh/Ren Luc Inh)” value by setting is: (0.0500% detergent, Dig) 1575; (0.0500% detergent, Terg) 21; (0.0500% detergent, Water) 3627. The remaining activity at 0.0005 % is, setting by setting: (0.0005% detergent, Dig) 61%; (0.0005% detergent, Terg) 90%; (0.0005% detergent, Water) 54%. Further, the remaining activity at 0.005 % came to 5% (0.0050% detergent, Dig); 58% (0.0050% detergent, Terg); 4% (0.0050% detergent, Water). Further, the remaining activity at 0.05 % (0.0500% (w:v) detergent, Terg (0.5% Tergitol NP-9)) worked out at 2%; the remaining activity at 0.05 % (0.0500% detergent, Dig (20 μg/ml digitonin)) came out at 0.02%; the remaining activity at 0.05 % (0.0500% detergent, Water (no lysing agent)) was found to be 0.02%.
